# Assay results from ChEMBL document CHEMBL1201862, “PubChem BioAssay data set” (2004).
#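 All cell lines were grown in 96-well plates and treated with compound for 48 hours. GI50 = concentration required for 50% inhibition of growth.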 Activity calls are given as the source filed them. Rule as the data show it: active = GI50 up to about 1.1 µM and inactive = higher.
# Key:
# Test in all cases: NCI anticancer screen, dose series, 48 h
# NCI/ADR-RES = system: NCI/ADR-RES
# SN12C = system: SN12C
# CAKI-1 = system: CAKI-1
# SK-MEL-28 = system: SK-MEL-28
# BT-549 = system: BT-549
# COLO 205 = system: COLO 205
# NCI-H522 = system: NCI-H522
# 786-0 = system: 786-0
# SK-MEL-5 = system: SK-MEL-5
# HOP-62 = system: HOP-62
# UO-31 = system: UO-31
# K562 = system: K562
# OVCAR-8 = system: OVCAR-8
# HT-29 = system: HT-29
# IGROV-1 = system: IGROV-1
# T47D = system: T47D
# RPMI-8226 = system: RPMI-8226
# U-251 = system: U-251
# MDA-MB-231 = system: MDA-MB-231
# SW-620 = system: SW-620
SMILES,GI50 (NCI/ADR-RES),GI50 (SN12C),GI50 (CAKI-1),GI50 (SK-MEL-28),GI50 (BT-549),GI50 (COLO 205),GI50 (NCI-H522),GI50 (786-0),GI50 (SK-MEL-5),GI50 (HOP-62),GI50 (UO-31),GI50 (K562),GI50 (OVCAR-8),GI50 (HT-29),GI50 (IGROV-1),GI50 (T47D),GI50 (RPMI-8226),GI50 (U-251),GI50 (MDA-MB-231),GI50 (SW-620)
ON[C@H]1C[C@@H](n2cnc3c(NC4CC4)ncnc32)[C@H](O)[C@@H]1O,> 100 µM (inactive),> 100 µM (inactive),> 100 µM (inactive),> 100 µM (inactive),> 100 µM (inactive),> 100 µM (inactive),> 100 µM (inactive),> 100 µM (inactive),> 100 µM (inactive),> 100 µM (inactive),> 100 µM (inactive),> 100 µM (inactive),> 100 µM (inactive),> 100 µM (inactive),> 100 µM (inactive),> 100 µM (inactive),> 100 µM (inactive),> 100 µM (inactive),> 100 µM (inactive),> 100 µM (inactive)
COc1ccc2c(c1)CC[C@@H]1[C@@H]2CC[C@]2(C)/C(=N/OCCN3CCCC3)CC[C@@H]12,8.61 µM (inactive),6.52 µM (inactive),1.75 µM (inactive),1.39 µM (inactive),8.07 µM (inactive),1.67 µM (inactive),3 µM (inactive),1.75 µM (inactive),1.9 µM (inactive),1.98 µM (inactive),2.81 µM (inactive),0.76 µM (active),3.81 µM (inactive),0.766 µM (active),4.51 µM (inactive),3.21 µM (inactive),1.5 µM (inactive),3.46 µM (inactive),3.83 µM (inactive),1.95 µM (inactive)
CC1(c2nc3cc(Cl)c(Cl)cc3[nH]2)CCC(CO)C(C)(C)O1 (stereo not given),17.7 µM (inactive),32 µM (inactive),29.3 µM (inactive),24.8 µM (inactive),17.1 µM (inactive),25.1 µM (inactive),6.49 µM (inactive),42 µM (inactive),13.2 µM (inactive),33.3 µM (inactive),15.1 µM (inactive),36.7 µM (inactive),19.5 µM (inactive),16.4 µM (inactive),20.9 µM (inactive),32.3 µM (inactive),16.9 µM (inactive),38.6 µM (inactive),22.8 µM (inactive),30.9 µM (inactive)
CN(C)CCCNc1c2ccccc2nc2cccc([N+](=O)[O-])c12,0.00798 µM (active),0.00102 µM (active),0.0196 µM (active),0.00235 µM (active),0.00252 µM (active),< 0.001 µM (active),< 0.001 µM (active),< 0.001 µM (active),< 0.001 µM (active),0.0011 µM (active),0.013 µM (active),< 0.001 µM (active),0.0195 µM (active),< 0.001 µM (active),< 0.001 µM (active),0.0158 µM (active),< 0.001 µM (active),0.0103 µM (active),< 0.001 µM (active),< 0.001 µM (active)
COc1ccc2c(c1)C1OCCNC1CC2 (stereo not given),> 100 µM (inactive),> 100 µM (inactive),> 100 µM (inactive),> 100 µM (inactive),> 100 µM (inactive),> 100 µM (inactive),> 100 µM (inactive),> 100 µM (inactive),> 100 µM (inactive),> 100 µM (inactive),> 100 µM (inactive),> 100 µM (inactive),> 100 µM (inactive),> 100 µM (inactive),> 100 µM (inactive),> 100 µM (inactive),> 100 µM (inactive),> 100 µM (inactive),> 100 µM (inactive),> 100 µM (inactive)
Cc1ccc(C2=Nn3c(nc4sc(C)c(C)c4c3=O)SC2)cc1,> 100 µM (inactive),> 100 µM (inactive),> 100 µM (inactive),> 100 µM (inactive),> 100 µM (inactive),> 100 µM (inactive),> 100 µM (inactive),> 100 µM (inactive),> 100 µM (inactive),64.1 µM (inactive),> 100 µM (inactive),> 100 µM (inactive),> 100 µM (inactive),> 100 µM (inactive),> 100 µM (inactive),> 100 µM (inactive),> 100 µM (inactive),> 100 µM (inactive),> 100 µM (inactive),> 100 µM (inactive)
COc1ccc(Br)c2c1CC(C(=O)O)CC2 (stereo not given),> 100 µM (inactive),> 100 µM (inactive),> 100 µM (inactive),> 100 µM (inactive),> 100 µM (inactive),> 100 µM (inactive),> 100 µM (inactive),> 100 µM (inactive),> 100 µM (inactive),> 100 µM (inactive),> 100 µM (inactive),> 100 µM (inactive),> 100 µM (inactive),> 100 µM (inactive),> 100 µM (inactive),> 100 µM (inactive),> 100 µM (inactive),> 100 µM (inactive),> 100 µM (inactive),> 100 µM (inactive)
O=C(/C=C/c1csc(-c2ccccc2)n1)NCc1ccc(C(=O)NCc2ccccc2)cc1,50.8 µM (inactive),> 100 µM (inactive),25.2 µM (inactive),> 100 µM (inactive),> 100 µM (inactive),> 100 µM (inactive),64.7 µM (inactive),33 µM (inactive),> 100 µM (inactive),11.3 µM (inactive),> 100 µM (inactive),> 100 µM (inactive),26.4 µM (inactive),41.2 µM (inactive),37.2 µM (inactive),> 100 µM (inactive),> 100 µM (inactive),32.9 µM (inactive),18.7 µM (inactive),> 100 µM (inactive)
C[n+]1cn(-c2nc3ccccc3nc2[N-]S(=O)(=O)c2ccccc2)c2ccccc21,> 100 µM (inactive),> 100 µM (inactive),> 100 µM (inactive),> 100 µM (inactive),> 100 µM (inactive),> 100 µM (inactive),0.222 µM (active),> 100 µM (inactive),> 100 µM (inactive),> 100 µM (inactive),80.7 µM (inactive),> 100 µM (inactive),> 100 µM (inactive),> 100 µM (inactive),> 100 µM (inactive),> 100 µM (inactive),> 100 µM (inactive),> 100 µM (inactive),> 100 µM (inactive),> 100 µM (inactive)
O=C1OC[C@@H]2[C@@H](O)CCCCCN12,> 100 µM (inactive),> 100 µM (inactive),> 100 µM (inactive),> 100 µM (inactive),> 100 µM (inactive),> 100 µM (inactive),> 100 µM (inactive),> 10 µM (inactive),> 100 µM (inactive),> 100 µM (inactive),> 100 µM (inactive),> 100 µM (inactive),> 100 µM (inactive),> 100 µM (inactive),> 100 µM (inactive),> 100 µM (inactive),> 100 µM (inactive),> 100 µM (inactive),> 100 µM (inactive),> 100 µM (inactive)
